The values that follow come from US6166290A, “Glutathione-S-conjugate transport in plants” (The Trustees of the University of Pennsylvania, priority 1997, dated 2000).

Several values for one entry are separate records, joined by “and”; a condition that tells them apart may be missing. Identical values can stand only once.

Series [1] has as its target T1, YCF1 (vacuolar membrane vesicles purified from DTY165 cells) (Saccharomyces cerevisiae, UniProt P39109).
T1 construct: endogenous in cells; host or cells: S. cerevisiae DTY165 (wild type YCF1), vacuolar membrane vesicles
The series can be described thus: [3H]DNP-GS uptake by vacuolar membrane vesicles purified from DTY165 cells. It is filed as biochemical. Summed up: (§1)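 ATP-dependent [3H]DNP-GS (66.2 μM) transport measured by filtration and scintillation counting of Ficoll-purified yeast vacuolar vesicles (DTY165 wild type; DTY167 ycf1Δ), 1–60 min at 25 °C in sorbitol/Tris-Mes pH 8.0 with 3 mM ATP, 3 mM MgSO4 and gramicidin-D. Nonenergized uptake without ATP/Mg2+.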

The test system of series [2] is vacuolar membrane vesicles purified from DTY167 cells (ycf1Δ mutant). Type of series: biochemical, Saccharomyces cerevisiae. The procedure, abridged:
as §1

A further series has as its target T2, AtMRP1 (Arabidopsis thaliana, UniProt Q9C8G9).
T2 construct: S. cerevisiae DTY168 (ycf1 null) vacuolar-enriched membrane vesicles
The series can be described thus: AtMRP1-dependent uptake by membrane vesicles from pYES3-AtMRP1-transformed DTY168 cells. Type of series: biochemical.

For series [3], the system named is membrane vesicles purified from pYES3-transformed DTY168 cells. Description: DNP-GS uptake by membrane vesicles from pYES3 (empty vector)-transformed DTY168 cells. Type of series: biochemical, Saccharomyces cerevisiae. The protocol: S. cerevisiae strain DTY168 (MATα his6, leu2-3, -112, ura3-52 ycf1::hisG) was transformed with pYES3-AtMRP1 or empty vector lacking the AtMRP1 insert (pYES3) by the LiOAc/PEG method (Giest et al., 1991, Yeast 7:253-263) and selected for uracil prototrophy by plating on AHC medium containing tryptophan (Kim et al., 1994, supra).
For the preparation of membrane vesicles, 15 ml volumes of stationary phase cultures of the transformants were diluted into 1 L of fresh AHC medium and grown to an OD600 nm of about 1.2. Membrane vesicles were purified as described herein and in Kim et al. (1995, supra).
DNP-GS uptake was measured as described herein in 200 μl reaction volumes containing 3 mM ATP, 3 mM MgSO4, 5 μM gramicidin-D, 10 mM creatine phosphate, 16 units/ml creatine kinase, 50 mM KCl, 1 mg/ml BSA, 400 mM sorbitol, 25 mM Tris-Mes (pH 8.0) and the indicated concentrations of [^3 H]DNP-GS (17.4 mCi/mmol).

Series [4] relates to vacuolar membrane vesicles purified from Beta vulgaris storage root. To be noted: cited from earlier work.
[5] abbreviates: Table 1: 66.2 μM DNP-GS, 3 mM MgATP, no addition.
Setting [6] is: Table 2: 5 μM gramicidin D, no compound.

T2 sequence (Q9C8G9 whole entry): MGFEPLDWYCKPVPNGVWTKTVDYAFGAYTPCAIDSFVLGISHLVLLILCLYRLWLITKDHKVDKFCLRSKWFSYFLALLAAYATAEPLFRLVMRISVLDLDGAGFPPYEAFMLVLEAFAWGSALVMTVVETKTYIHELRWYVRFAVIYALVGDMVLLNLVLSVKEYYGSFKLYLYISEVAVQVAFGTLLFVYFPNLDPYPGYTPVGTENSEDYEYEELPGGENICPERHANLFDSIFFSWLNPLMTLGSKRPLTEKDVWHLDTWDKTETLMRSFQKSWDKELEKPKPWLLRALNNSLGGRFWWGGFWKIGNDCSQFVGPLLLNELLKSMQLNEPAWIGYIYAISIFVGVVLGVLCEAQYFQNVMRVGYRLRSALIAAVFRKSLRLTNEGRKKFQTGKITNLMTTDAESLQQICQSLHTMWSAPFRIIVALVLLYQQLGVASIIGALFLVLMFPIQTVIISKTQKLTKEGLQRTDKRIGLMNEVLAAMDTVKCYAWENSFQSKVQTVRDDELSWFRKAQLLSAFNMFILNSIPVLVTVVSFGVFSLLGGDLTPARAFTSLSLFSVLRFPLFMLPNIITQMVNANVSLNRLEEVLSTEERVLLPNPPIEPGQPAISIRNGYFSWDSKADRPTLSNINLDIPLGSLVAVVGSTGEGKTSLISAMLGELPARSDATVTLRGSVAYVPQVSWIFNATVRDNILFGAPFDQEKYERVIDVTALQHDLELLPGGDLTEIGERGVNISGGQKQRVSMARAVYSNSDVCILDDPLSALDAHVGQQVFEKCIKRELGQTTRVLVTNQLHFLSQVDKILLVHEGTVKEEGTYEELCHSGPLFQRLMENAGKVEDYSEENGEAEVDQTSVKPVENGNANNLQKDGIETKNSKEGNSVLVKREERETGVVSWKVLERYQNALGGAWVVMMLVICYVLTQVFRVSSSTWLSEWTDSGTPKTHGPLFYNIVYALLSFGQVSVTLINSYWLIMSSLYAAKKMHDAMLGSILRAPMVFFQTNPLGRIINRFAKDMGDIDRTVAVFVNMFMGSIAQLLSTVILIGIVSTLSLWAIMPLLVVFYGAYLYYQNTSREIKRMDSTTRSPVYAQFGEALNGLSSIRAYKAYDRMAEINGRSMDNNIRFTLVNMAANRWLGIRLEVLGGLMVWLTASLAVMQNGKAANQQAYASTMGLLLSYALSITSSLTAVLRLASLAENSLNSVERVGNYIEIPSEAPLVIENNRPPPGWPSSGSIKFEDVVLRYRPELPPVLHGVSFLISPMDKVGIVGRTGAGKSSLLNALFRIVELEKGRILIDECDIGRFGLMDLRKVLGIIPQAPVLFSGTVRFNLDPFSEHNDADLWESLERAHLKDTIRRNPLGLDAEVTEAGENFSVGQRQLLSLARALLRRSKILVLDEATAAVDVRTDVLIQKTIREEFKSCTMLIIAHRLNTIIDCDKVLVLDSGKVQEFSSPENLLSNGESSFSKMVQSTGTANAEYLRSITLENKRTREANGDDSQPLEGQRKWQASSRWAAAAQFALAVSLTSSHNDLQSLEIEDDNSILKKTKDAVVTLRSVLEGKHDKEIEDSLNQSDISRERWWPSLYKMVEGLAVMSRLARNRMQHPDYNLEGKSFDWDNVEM
T1 sequence (P39109 whole entry): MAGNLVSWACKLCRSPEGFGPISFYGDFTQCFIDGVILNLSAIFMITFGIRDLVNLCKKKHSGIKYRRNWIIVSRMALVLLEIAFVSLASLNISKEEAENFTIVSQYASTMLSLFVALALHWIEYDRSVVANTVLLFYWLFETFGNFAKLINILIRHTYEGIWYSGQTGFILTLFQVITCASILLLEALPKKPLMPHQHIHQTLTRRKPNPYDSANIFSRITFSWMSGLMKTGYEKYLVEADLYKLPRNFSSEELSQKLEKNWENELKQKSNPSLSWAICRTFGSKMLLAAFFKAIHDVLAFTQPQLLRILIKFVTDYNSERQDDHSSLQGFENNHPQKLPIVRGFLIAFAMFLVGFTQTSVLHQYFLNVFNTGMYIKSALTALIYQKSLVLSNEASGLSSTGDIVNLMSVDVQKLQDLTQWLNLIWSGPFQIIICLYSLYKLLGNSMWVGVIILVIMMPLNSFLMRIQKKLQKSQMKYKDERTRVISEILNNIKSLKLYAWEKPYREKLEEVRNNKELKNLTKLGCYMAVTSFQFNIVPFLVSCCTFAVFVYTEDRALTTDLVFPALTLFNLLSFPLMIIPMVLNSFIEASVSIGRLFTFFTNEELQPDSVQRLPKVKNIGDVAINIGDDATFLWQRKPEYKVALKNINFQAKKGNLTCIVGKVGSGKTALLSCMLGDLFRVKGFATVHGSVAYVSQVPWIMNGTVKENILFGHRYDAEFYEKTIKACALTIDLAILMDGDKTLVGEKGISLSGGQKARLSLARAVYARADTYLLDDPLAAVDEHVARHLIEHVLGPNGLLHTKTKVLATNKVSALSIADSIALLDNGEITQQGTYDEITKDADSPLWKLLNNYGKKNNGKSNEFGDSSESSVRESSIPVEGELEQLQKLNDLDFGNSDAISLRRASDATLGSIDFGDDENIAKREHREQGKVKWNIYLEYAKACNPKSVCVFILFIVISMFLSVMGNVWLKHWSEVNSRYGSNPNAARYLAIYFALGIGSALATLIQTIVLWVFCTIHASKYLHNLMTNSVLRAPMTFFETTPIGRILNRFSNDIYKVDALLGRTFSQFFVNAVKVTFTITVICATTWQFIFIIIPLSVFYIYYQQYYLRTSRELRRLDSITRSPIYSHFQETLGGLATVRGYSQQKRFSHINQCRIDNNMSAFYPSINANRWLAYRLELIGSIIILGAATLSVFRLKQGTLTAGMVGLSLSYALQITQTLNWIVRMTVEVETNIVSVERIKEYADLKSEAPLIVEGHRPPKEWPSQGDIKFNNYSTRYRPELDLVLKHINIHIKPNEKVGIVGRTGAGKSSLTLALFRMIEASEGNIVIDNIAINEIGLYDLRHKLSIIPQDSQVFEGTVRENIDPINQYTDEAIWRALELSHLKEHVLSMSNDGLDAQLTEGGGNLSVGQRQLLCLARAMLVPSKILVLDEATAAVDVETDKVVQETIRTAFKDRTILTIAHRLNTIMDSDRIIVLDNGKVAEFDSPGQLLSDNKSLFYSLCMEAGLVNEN

Consider `N[C@@H](CCC(=O)N[C@@H](CSc1ccc([N+](=O)[O-])cc1[N+](=O)[O-])C(=O)NCC(=O)O)C(=O)O` [DNP-GS, S-(2,4-dinitrophenyl)glutathione], for which the “Vmax(DNP-GS) of MgATP-dependent uncoupler-insensitive uptake” value in series [1] (3 mM MgATP, 5 μM gramicidin D) is 51.0±16.3 nmol/mg/10 minutes and 51.0±6.3 nmol/mg/10 minutes. The “initial rate of DNP-GS uptake” value in series [1] (3 mM MgATP, 66.2 μM DNP-GS) is 12.2 nmol/mg/min; in series [2] (3 mM MgATP, 66.2 μM DNP-GS) it was 1.7 nmol/mg/min; at AtMRP1 (61.3 μM DNP-GS), 0.4 nmol/mg/min; in series [3] (61.3 μM DNP-GS), 0.1 nmol/mg/min. The entries for the “DNP-GS uptake, control” value in series [1] (setting [5]) and in series [2] (setting [5]) were 77.7 ± 1.0 nmol/mg/10 minutes and 15.4 ± 0.4 nmol/mg/10 minutes, respectively. The “MgATP-dependent, uncoupler-insensitive DNP-GS uptake, control” value in series [1] (setting [6]) is listed as 47.9 ± 2.5 nmol/mg/10 minutes; in series [2] (setting [6]) it was 6.5 ± 0.8 nmol/mg/10 minutes. In addition, the “MgATP-dependent, uncoupler-insensitive DNP-GS uptake, vacuolar membrane” value in series [1] (Table 4, vacuolar membrane vesicles from DTY165 cells) was 69.9 ± 1.0 nmol/mg/10 min. For the same molecule, the “MgATP-dependent, uncoupler-insensitive DNP-GS uptake, crude microsomes” value in series [1] (crude microsomes from DTY165 cells) was 2.5 ± 0.3 nmol/mg/10 min. Moreover, the “increase in DNP-GS uptake following introduction of plasmid borne AtMRP1” value at AtMRP1 is “ca. 4 nmol/mg/20 minutes”. Further, at AtMRP1 (MgATP-dependent, uncoupler-insensitive), the “Vmax for AtMRP1-dependent uptake” value is 6.0±1.7 nmol/mg/10 min and 8.2±1.6 nmol/mg/10 min. Moreover, in series [3] (read-out: apparent Km for DNP-GS uptake), the Km is greater than 500 µM. Further, in series [4], the “rate of MgATP-dependent, uncoupler-insensitive DNP-GS uptake” value was 18.2 nmol/mg/20 minutes.
